Experimental data taken from patent US20120128650A1, “EXTENDED ACTING OXYGEN GENERATING COMPOSITION FOR TREATING MICROBIAL INFECTIONS” (DEC INTERNATIONAL NZ LIMITED, priority 2009, published 2012).

How the values were obtained:
[1] = system: Staphylococcus aureus; assay: Growth of Staphylococcus aureus in mastitic milk, colony counts; format: cell-based; conditions: 10 micromoles per ml added at 60 minutes, oxygen-limited
Description: Milk was collected at the morning milking, using aseptic technique, from a quarter that had been identified as having a sub-clinical infection with a single organism. The milk was taken to the laboratory and within 2 hours of collection divided amongst sterile incubation containers. The container was either a sealed vessel that was filled so there was no head-space and could be sampled through a rubber septum (limited oxygen) or a flask with a large surface area and head space, incubated in a shaking incubator (oxygenated). Because milk is aerated during collection and handling the samples should have the same oxygen content at the start of incubation. The growth rate was determined by sampling at regular intervals, diluting into recovery diluent, plating and counting the number of colonies.

[2] = pH, oxygen and peroxide analysis after addition of coated sodium percarbonate to milk; format: physicochemical
Description: Sodium percarbonate coated with ethyl cellulose was added to 20 mL pasteurized and homogenized milk. The pH value (by pH Meter), the concentration of oxygen (by potentiometric electrode) and peroxide (by chemical test strips) were measured at interval sampling time, as shown in FIG. 4A-C.

Row | SMILES | number of viable organisms ([1]; after 4 hours, from around 3000 cfu per ml at 60 minutes) [cfu per ml] | number of viable organisms ([1]; at 10 hours and thereafter) | amount required to deliver 30 mg peroxide [2] [mg]
1 | OO [Hydrogen peroxide] | 20 | no detectable organisms | 
2 | O=C([O-])[O-].O=C([O-])[O-].OO.OO.OO.[Na+].[Na+].[Na+].[Na+] [sodium percarbonate] |  |  | 70 to 100
